Values quoted from earlier work, collected in patent US20170326139A1, “COMBINATION THERAPY FOR MALE SEXUAL DYSFUNCTION” (priority 2016, published 2017).
Where two headings read alike, the source gives them in different places.

Tests used:
premature ejaculation [1] = system: premature ejaculation
premature ejaculation [2] = system: premature ejaculation; remark: listed apart in the source
premature ejaculation [3] = details: in vivo

CCCc1nn(C)c2c(=O)[nH]c(-c3cc(S(=O)(=O)N4CCN(C)CC4)ccc3OCC)nc12 [sildenafil]
effect on PE versus placebo (premature ejaculation [1]; sildenafil 50 mg pre-coitus administered alone): no better than placebo
IELT (premature ejaculation [1]; sildenafil 50 mg pre-coitus combined with behavioral psychotherapy): about 3.63 minutes

CN(C)CCCN1c2ccccc2CCc2ccc(Cl)cc21 [clomipramine]
effect in treating PE (premature ejaculation [2]; inhaled (nasal) 4 mg or 5 mg on-demand, e.g. one hour pre-coitus): effective in treating PE
effect on IELT (premature ejaculation [2]; orally administered daily at 10 to 50 mg per day): effectively increase IELT

CNCC[C@H](Oc1cccc2ccccc12)c1cccs1 [duloxetine]
effect on IELT (premature ejaculation [3]): some positive effect on IELT
